System: primary human bronchial epithelial cells (HBECs)
Assay: ALI differentiation of HBECs with IL-13, immunofluorescence/histology readout
Format: cell-based
Conditions: IL-13 treatment during ALI differentiation, day 14, 1 ng/mL
Protocol: FIG. 14A illustrates an experimental scheme of culturing the undifferentiated basal cells known as primary human bronchial epithelial cells (HBECs) at the air-liquid interface in the presence or absence of IL-13 and the perturbagens. […] Pseudostratified airway epithelium was formed by day 14 of ALI differentiation in the presence of 1 ng/mL of […]. Total mucus (AB/PAS), goblet cells (Muc5ac^+), and ciliated cells (acetyl α-tubulin^+) were visualized via immunofluorescence or histology. For histology analysis, the differentiated HBECs on day 14 of ALI were stained with AB/PAS, Muc5ac, and acetyl α-tubulin. […] Immunofluorescence allows for a top down view of the most apical layer of cells, while histology presents a cross-section of the pseudostratified epithelium and is amenable for image quantification.
Using scRNA-seq data, Compound B1 was predicted to inhibit goblet cells and promote club cells within the top 1.2% of compounds of the intervention library. […] Goblet and club cells were assessed by Muc5ac and Scgblal primers, respectively. […] Goblet and ciliated cells were assessed by Muc5ac and Foxj1 primers, respectively. […]
Pseudostratified airway epithelium was formed by day 14 of ALI differentiation. […] In addition, qPCR of ciliated (Foxj1) and goblet (Muc5ac) marker expression was used as a sensitive and quantitative readout of epithelial cell type distribution. […]

Substance: IL-13: inflammatory signaling cytokine (R&D) used to induce goblet cell hyperplasia
- ciliated cells (acetyl α-tubulin+): reduces ciliated cells
- goblet cells (Muc5ac+), total mucus (AB/PAS): induces goblet cell hyperplasia

Source: patent publication US20220399129A1, “SYSTEMS AND METHODS FOR TERRAFORMING” (Flagship Pioneering Innovations VI, LLC, priority 2021, published 2022)
